Assay results: PubChem BioAssay (NCI)
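At the GI50, growth is halved. TGI: total growth inhibition.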

Legend:
Assay in all cases: growth of human tumour cells (NCI), 384-well format
[1] = system: TK-10 renal
[2] = system: HCC-2998 colon
[3] = system: A498 renal
[4] = system: SW-620 colon
[5] = system: RXF 393 renal
[6] = system: HOP-62 NSCLC
[7] = system: NCI-H23 lung
[8] = system: RPMI-8226 leukemia
[9] = system: SNB-75 CNS
[10] = system: MOLT-4 leukemia
[11] = system: BT-549 breast
[12] = system: CCRF-CEM leukemia
[13] = system: NCI-H460 NSCLC
[14] = system: SK-MEL-2 melanoma
[15] = system: IGROV1 ovarian
[16] = system: M14 melanoma
[17] = system: SK-OV-3 ovarian
[18] = system: NCI-H226 lung
[19] = system: OVCAR-4 ovarian
[20] = system: A549 NSCLC
[21] = system: HL-60(TB) leukemia
[22] = system: HS 578T breast
[23] = system: MCF7 breast
[24] = system: UACC-257 melanoma
[25] = system: HT29 colon
[26] = system: U251 glioblastoma
[27] = system: SK-MEL-5 melanoma
[28] = system: MDA-MB-435 melanoma
[29] = system: UO-31 renal
[30] = system: UACC-62 melanoma
[31] = system: COLO 205 colon
[32] = system: SF-539 CNS
[33] = system: OVCAR-3 ovarian
[34] = system: KM12 colon
[35] = system: OVCAR-8 ovarian
[36] = system: NCI-H322M lung
[37] = system: DU-145 prostate
[38] = system: SF-268 CNS
[39] = system: SK-MEL-28 melanoma
[40] = system: HOP-92 NSCLC
[41] = system: CAKI-1 renal
[42] = system: HCT-116 colon
[43] = system: LOX IMVI melanoma
[44] = system: SNB-19 CNS
[45] = system: HCT-15 colon
[46] = system: NCI/ADR-RES ovarian
[47] = system: SR leukemia
[48] = system: MDA-MB-231 breast
[49] = system: EKVX NSCLC
[50] = system: 786-0 renal
[51] = system: SN12C renal
[52] = system: MALME-3M melanoma
[53] = system: ACHN renal
[54] = system: MDA-MB-468 breast
[55] = system: PC-3 prostate
[56] = system: NCI-H522 lung
[57] = system: OVCAR-5 ovarian
[58] = system: SF-295 CNS
[59] = system: T-47D breast

In the case of C[C@@]1(O)CCC[C@H]1n1c(=O)c(C(F)F)cc2cnc(NC3CCN(S(C)(=O)=O)CC3)nc21, the GI50 [1] is reported as 1.15 µM, the TGI [1] is reported as greater than 100 µM and the GI50 [2] is reported as 1.38 µM. It also gave a TGI [2] of 3.9 µM, a GI50 [3] of 1.75 µM and a TGI [3] greater than 100 µM. For the same compound, the GI50 [4] was 0.0944 µM, the TGI [4] was greater than 100 µM and the GI50 [5] was 1.44 µM. For the same compound, the TGI [5] was 2.88 µM, the GI50 [6] was 1.8 µM and the TGI [6] was 6.59 µM. The GI50 [7] was 1.68 µM, the TGI [7] was 3.3 µM and the GI50 [8] was 0.029 µM. The TGI [8] was 0.0951 µM, the GI50 [9] was 1.42 µM and the TGI [9] was 3.02 µM. For the same compound, the GI50 [10] was 0.445 µM, the TGI [10] was 1.93 µM and the GI50 [11] was 0.866 µM. For the same compound, the TGI [11] was 3.04 µM, the GI50 [12] was 0.357 µM and the TGI [12] was 1.77 µM. For the same compound, the GI50 [13] was 0.0589 µM, the TGI [13] was 2.18 µM and the GI50 [14] was 2.25 µM. The TGI [14] was 4.21 µM, the GI50 [15] was 1.62 µM and the TGI [15] was greater than 100 µM. It also gave a GI50 [16] of 1.47 µM, a TGI [16] of 5.49 µM and a GI50 [17] of 3.01 µM. For the same compound, the TGI [17] was greater than 100 µM, the GI50 [18] was 1.1 µM and the TGI [18] was greater than 100 µM. For the same compound, the GI50 [19] was 3.04 µM, the TGI [19] was 7.15 µM and the GI50 [20] was 1.98 µM. It also gave a TGI [20] greater than 100 µM, a GI50 [21] of 0.0721 µM and a TGI [21] of 1.2 µM. It also gave a GI50 [22] of 1.92 µM, a TGI [22] of 4.04 µM and a GI50 [23] of 0.128 µM. It also gave a TGI [23] of 19.1 µM, a GI50 [24] of 1.63 µM and a TGI [24] of 3.97 µM. The GI50 [25] was 1.83 µM, the TGI [25] was greater than 100 µM and the GI50 [26] was 2.03 µM. It also gave a TGI [26] of 8.8 µM, a GI50 [27] of 0.0993 µM and a TGI [27] of 2.28 µM. It also gave a GI50 [28] of 1.63 µM, a TGI [28] of 9.28 µM and a GI50 [29] of 1.01 µM. The TGI [29] was 4.13 µM, the GI50 [30] was 0.951 µM and the TGI [30] was 2.94 µM. For the same compound, the GI50 [31] was 1.33 µM, the TGI [31] was 4.74 µM and the GI50 [32] was 1.3 µM. The TGI [32] was 2.89 µM, the GI50 [33] was 1.52 µM and the TGI [33] was 5.57 µM. It also gave a GI50 [34] of 1.07 µM, a TGI [34] of 3.92 µM and a GI50 [35] of 1.54 µM. The TGI [35] was greater than 100 µM, the GI50 [36] was 2.07 µM and the TGI [36] was 5.8 µM. It also gave a GI50 [37] of 1.63 µM, a TGI [37] of 6.38 µM and a GI50 [38] of 1.69 µM. The TGI [38] was 4.04 µM, the GI50 [39] was 1.21 µM and the TGI [39] was 2.91 µM. For the same compound, the GI50 [40] was 2.05 µM, the TGI [40] was greater than 100 µM and the GI50 [41] was 0.784 µM. For the same compound, the TGI [41] was greater than 100 µM, the GI50 [42] was 0.198 µM and the TGI [42] was greater than 100 µM. It also gave a GI50 [43] of 1.6 µM, a TGI [43] greater than 100 µM and a GI50 [44] of 2.4 µM. The TGI [44] was greater than 100 µM, the GI50 [45] was 1.79 µM and the TGI [45] was 15.8 µM. The GI50 [46] was 21 µM, the TGI [46] was greater than 100 µM and the GI50 [47] was 0.0344 µM. The TGI [47] was 1.08 µM, the GI50 [48] was 2.34 µM and the TGI [48] was greater than 100 µM. The GI50 [49] was 1.9 µM, the TGI [49] was 5.15 µM and the GI50 [50] was 1.85 µM. The TGI [50] was greater than 100 µM, the GI50 [51] was 1.99 µM and the TGI [51] was 4.92 µM. The GI50 [52] was 1.44 µM and the TGI [52] was 3.16 µM.

Compound COc1c2occc2cc2ccc(=O)oc12 has a GI50 [1] of 81.6 µM, a TGI [1] greater than 100 µM and a GI50 [2] greater than 100 µM. The TGI [2] was greater than 100 µM, the GI50 [53] was greater than 100 µM and the TGI [53] was greater than 100 µM. It also gave a GI50 [3] greater than 100 µM, a TGI [3] greater than 100 µM and a GI50 [4] greater than 100 µM. For the same compound, the TGI [4] was greater than 100 µM, the GI50 [54] was 39.8 µM and the TGI [54] was greater than 100 µM. It also gave a GI50 [5] greater than 100 µM, a TGI [5] greater than 100 µM and a GI50 [6] greater than 100 µM. For the same compound, the TGI [6] was greater than 100 µM, the GI50 [7] was greater than 100 µM and the TGI [7] was greater than 100 µM. For the same compound, the GI50 [8] was greater than 100 µM, the TGI [8] was greater than 100 µM and the GI50 [9] was 73.3 µM. For the same compound, the TGI [9] was greater than 100 µM, the GI50 [10] was greater than 100 µM and the TGI [10] was greater than 100 µM. It also gave a GI50 [55] greater than 100 µM, a TGI [55] greater than 100 µM and a GI50 [11] greater than 100 µM. The TGI [11] was greater than 100 µM, the GI50 [12] was greater than 100 µM and the TGI [12] was greater than 100 µM. For the same compound, the GI50 [13] was greater than 100 µM, the TGI [13] was greater than 100 µM and the GI50 [14] was greater than 100 µM. It also gave a TGI [14] greater than 100 µM, a GI50 [15] greater than 100 µM and a TGI [15] greater than 100 µM. It also gave a GI50 [56] of 60.9 µM, a TGI [56] greater than 100 µM and a GI50 [16] greater than 100 µM. It also gave a TGI [16] greater than 100 µM, a GI50 [57] greater than 100 µM and a TGI [57] greater than 100 µM. For the same compound, the GI50 [17] was greater than 100 µM, the TGI [17] was greater than 100 µM and the GI50 [58] was greater than 100 µM. It also gave a TGI [58] greater than 100 µM, a GI50 [18] of 55.4 µM and a TGI [18] greater than 100 µM. The GI50 [19] was greater than 100 µM, the TGI [19] was greater than 100 µM and the GI50 [20] was greater than 100 µM. It also gave a TGI [20] greater than 100 µM, a GI50 [21] greater than 100 µM and a TGI [21] greater than 100 µM. For the same compound, the GI50 [22] was greater than 100 µM, the TGI [22] was greater than 100 µM and the GI50 [23] was greater than 100 µM. The TGI [23] was greater than 100 µM, the GI50 [24] was greater than 100 µM and the TGI [24] was greater than 100 µM. For the same compound, the GI50 [25] was greater than 100 µM, the TGI [25] was greater than 100 µM and the GI50 [26] was greater than 100 µM. The TGI [26] was greater than 100 µM, the GI50 [27] was greater than 100 µM and the TGI [27] was greater than 100 µM. The GI50 [28] was greater than 100 µM, the TGI [28] was greater than 100 µM and the GI50 [30] was greater than 100 µM. The TGI [30] was greater than 100 µM, the GI50 [59] was greater than 100 µM and the TGI [59] was greater than 100 µM. It also gave a GI50 [31] greater than 100 µM, a TGI [31] greater than 100 µM and a GI50 [32] greater than 100 µM. It also gave a TGI [32] greater than 100 µM, a GI50 [33] greater than 100 µM and a TGI [33] greater than 100 µM. The GI50 [34] was greater than 100 µM, the TGI [34] was greater than 100 µM and the GI50 [35] was greater than 100 µM. It also gave a TGI [35] greater than 100 µM, a GI50 [36] greater than 100 µM and a TGI [36] greater than 100 µM. For the same compound, the GI50 [37] was greater than 100 µM, the TGI [37] was greater than 100 µM and the GI50 [38] was greater than 100 µM. The TGI [38] was greater than 100 µM, the GI50 [39] was greater than 100 µM and the TGI [39] was greater than 100 µM. It also gave a GI50 [40] greater than 100 µM, a TGI [40] greater than 100 µM and a GI50 [41] greater than 100 µM. It also gave a TGI [41] greater than 100 µM, a GI50 [44] greater than 100 µM and a TGI [44] greater than 100 µM. The GI50 [45] was greater than 100 µM, the TGI [45] was greater than 100 µM and the GI50 [46] was greater than 100 µM. It also gave a TGI [46] greater than 100 µM, a GI50 [47] greater than 100 µM and a TGI [47] greater than 100 µM. The GI50 [48] was greater than 100 µM, the TGI [48] was greater than 100 µM and the GI50 [49] was 93.1 µM. It also gave a TGI [49] greater than 100 µM, a GI50 [50] greater than 100 µM and a TGI [50] greater than 100 µM. For the same compound, the GI50 [51] was greater than 100 µM, the TGI [51] was greater than 100 µM and the GI50 [52] was greater than 100 µM. It also gave a TGI [52] greater than 100 µM.
